Source: paper PMC7179653 (Antimicrobial Agents and Chemotherapy, 2020)
Read-outs that look alike come from different tables or passages of the source. Values belong to the compound of their own block, whether it stands above or below them.

What was measured:
[1] = set-up: method as in PMID 25813217, PMID 29914955, PMID 27527080, PMID 29437614; details: healthy individuals; cited from earlier work
[2] = clinical; details: human, in vivo
Method: All participants in the active group received a single 2,000-mg dose of both drugs on day 3 and q8h on days 4 to 8, with a final single dose of both drugs on the morning of day 9. A washout period of approximately 24 h between treatments was provided. Study treatments were administered as 30-min (SAD study) or 90-min (MAD study) i.v. infusions, the latter to investigate the pharmacokinetics using a longer infusion time, which is commonly used to increase the time above the MIC of β-lactams ([15]). The choice of a 90-min infusion time for the MAD study was dictated by the stability and toxicology data available at the time the study was being designed. […] Safety assessments included monitoring of AEs, laboratory safety tests (hematology, serum chemistry, and urinalysis), 12-lead ECG (discrete recordings and 24-h Holter recording), and vital signs (blood pressure, pulse rate, and body temperature). In the SAD study, safety assessments were performed predose at screening, at day 1, postdose periodically on days 1, 2, and 7 (follow-up), and at early withdrawal, if relevant. […] In the MAD study, safety assessments were done predose at screening, at day 2, postdose periodically on days 1, 2, 4, 7, and 8, on days 13 to 15 (follow-up), and at early withdrawal, if relevant. […] On all other days, a single predose sample was collected for pharmacokinetic evaluation prior to the morning infusion. Blood was collected into lithium-heparin tubes and stored at a nominal –80°C temperature until analysis.

SMILES: NC(=O)[C@@H]1CC[C@@H]2CN1C(=O)N2OS(=O)(=O)O [avibactam]
half-life [1]: approximately 2 h

SMILES: O=C(NC1CCNCC1)[C@@H]1CC[C@@H]2CN1C(=O)N2OS(=O)(=O)O [relebactam]
half-life [1]: approximately 2 h

Tmax [2]: 1 h
clearance ([2]; CL): 253 mL/min
CL renal ([2]; CLr): 161 mL/min
Vd ([2]; Vdss): 19.8 L
half-life ([2]; t1/2): 1.3 h
SMILES: C[C@@H](O)[C@H]1C(=O)N2C(C(=O)O)=C(S[C@@H]3CN[C@H](C(=O)N(C)C)C3)[C@H](C)[C@H]12 [meropenem]

SMILES: O=C(O)C[C@@H]1CC[C@H](NC(=O)Cc2cccs2)B(O)O1 [vaborbactam]
half-life [1]: approximately 2 h
